# Test results published in US12161869B2, “Treatment of disorders associated with inflammation” (Galvani Bioelectronics Limited, priority 2017, dated 2024).
# Where a name gives a salt, the structure may show the parent alone.
# Tested on: SpA BF changes during SpN stimulation
# Assay: Local lidocaine block of SpN stimulation-induced changes in splenic artery blood flow
# Format: in vivo, pig
# Settings: 2% lidocaine hydrochloride solution applied locally around the implanted SpN cuff
# Method: On the experimental day, the animal was sedated with ketamine (1.5 mg/kg) and midazolam (0.5 mg/kg) administered by intramuscular injection. An intravenous catheter was placed in one auricular vein, and anesthesia was induced by propofol (2 mg/Kg) administered intravenously. An endotracheal tube was placed, and anesthesia was maintained with sevoflurane inhalant combined with continuous rate infusion (CRI) of fentanyl (0.2 μg/Kg/min).
# The surgical approach to SpN cuff implantation was as follows. The thoracolumbar junction was supported and slightly elevated using a sand bag. After appropriate surgical preparation (clipping and aseptic scrub with chlorhexidine gluconate and alcohol), the left flank was aseptically draped exposing a 20×25 cm area centered on the second to last rib. A 15 cm skin incision was made in the second to last intercostal space using monopolar electrocautery. The incision was continued through the subcutaneous tissues and intercostal musculature until the peritoneum was exposed. […]
# By slight rotation of the splenic visceral base towards the operator, and placing gentle ventral traction on the spleen, the gastrosplenic ligament at the splenic hilum was incised using Metzembaum scissors, exposing the SpA. […] SpA blood flow readings were tested and finally the rib retractors were partially closed and the exposed incision covered with saline-soaked gauze sponges. […]
smiles,measurement,value
"CCN(CC)CC(=O)Nc1c(C)cccc1C [Lidocaine, lidocaine hydrochloride]",effect on changes in SpA BF caused by SpN stimulation,able to block the changes in SpA BF
